Laboratory results from patent US4985547A, “External skin care preparation” (Kao Corporation, priority 1987, dated 1991).

Experiments:
horny layer = test: Skin conductance (water content of horny layer) after two-week coating on cheeks; format: in vivo, women; parameters: key: conductance meter reading; ≤5 = severe roughness, ≥20 = no roughness; conditions: Invention Product 1: vaseline and compound 3:1 by weight; two weeks; 20° C., 40% humidity; 5 and smaller = severe roughness, 20 or greater = no substantial roughness
Text: (§1) Compounds Ia1 -Ia18 prepared respectively in Referential Examples 1, 2 and 3 and following the procedures of these referential examples, compounds Ib1 -Ib5 prepared respectively in Referential Example 4 and following the procedure of the referential example, compounds Id1 -Id5 prepared respectively in Referential Example 5 and following the procedure of the referential example, compounds Ie1 -Ie4 prepared respectively in Referential Examples 6-9, and conventional compounds Ic1 -Ic13, Ie5 -Ie14 and II1 -II12 were used separately. Mixtures (Invention Products 1), each of which had been formulated by mixing vaseline and the compound (I or II) at a weight ratio of 3:1, and vaseline (Comparative Product 1) were evaluated in skin conductance and skin roughness by the following methods.
(§2) Chosen as volunteers in winter were 10 women of 20-50 years of old who had skin roughness on their both cheeks. Different external skin care preparations were coated separately on the left and right cheeks of each volunteer for two weeks. On the following day of the completion of the two-week coating test, tests were conducted with respect to the following properties.
After washing the face with warm water of 37° C., each volunteer was allowed to rest for 20 minutes in a room which was air-conditioned at 20° C. and 40% humidity. The water content of their horny layer was measured by a skin conductance meter (manufactured by IBS Company). A smaller conductance value indicates greater skin roughness. Conductance values of 5 and smaller indicate severe skin roughness. On the contrary, no substantial skin roughness is observed where this value is 20 or greater.

skin roughness = test: Score of skin roughness, visual ranking after two-week coating on cheeks; format: in vivo, women; conditions: compound 1.0 wt. %, average, 0 = none, 4 = severe
Text: as §1, §2
Skin roughness was observed visually and ranked in accordance with the following standard. Each score was indicated by an average value.
Score Ranking of skin roughness
0 No skin roughness was observed.
1 Slight skin roughness was observed.
2 Skin roughness was observed.
3 Rather severe skin roughness was observed.
4 Severe skin roughness was observed.
Using separately the compounds used in Example 1, external skin care preparations (emulsified cosmetic preparations) of their corresponding compositions shown below in Table 2 were formulated. Their effects for the improvement of skin roughness were evaluated in the same manner as in Example 1.

[1] = Invention product 2: emulsified cosmetic, glyceryl ether 2.0 wt. %
[2] = Invention product 3: emulsified cosmetic, arginine monocetylphosphate 2.0 wt. %
[3] = Invention product 4: emulsified cosmetic, polyoxyethylene (20) sorbitan stearate 1.0 and sorbitan monostearate 1.0 wt. %

Structure (SMILES)	Skin conductance (horny layer)	Score of skin roughness (skin roughness; [1])	Score of skin roughness (skin roughness; [2])	Score of skin roughness (skin roughness; [3])
CCCCCCCCCCCCCCCCCCOCC(O)CN(CCO)CC(O)COCCCCCCCCCCCCCCCCCC (stereo not shown) [Compound II4]	21	0.1	0.3	0.7
CCCCCCCCCCCCCCCCOCC(O)CN(CCO[C@@H]1O[C@H](CO)[C@@H](O)[C@H](O)[C@H]1NC(C)=O)C(=O)CCCCCCCCCCCCCCC (stereo partly shown) [Compound Ie3]	31	0.3	0.4	0.7
CCCCCCCCCCCCCCCCOCC(CN(CCOP(=O)([O-])OCC[N+](C)(C)C)C(=O)CCCCCCCCCCCCCCC)OP(=O)([O-])OCC[N+](C)(C)C (stereo not shown) [Compound Ie14]	10	1.2	1.4	1.9
CCCCCCCCCCCCCCCCOCC(O)CN(CCCCCCO)C(=O)CCCCCCCCCCCCCCC (stereo not shown) [Compound Ia2, N-(3-hexadecylocy-2-hydroxypropyl)-N-6-hydroxyhexylhexadecanamide]	18	0.3	0.5	1.0
CCCCCCCCCCCCCCCCCCOCC(O)CN(C(=O)CCCCCCCCCCCCCCCCC)C(C)(CO)CO (stereo not shown) [Compound Ia14]	23	0.1	0.3	0.6
CCCCCCCCCCCCCCCCCC(=O)N(CCOCCO)CC(O)COCCCCCCCCCC (stereo not shown) [Compound Ib4]	17	0.4	0.6	0.9
CCCCCCCCCCCCCCCCOCC(O)CN(CCCO)C(=O)CCCCCCCCCCCCCCC (stereo not shown) [Compound Ia1, N-(3-hexadecyloxy-2-hydroxypropyl)-N-3-hydroxypropylhexadecanamide]	20	0.2	0.4	0.8
CCCCCCCCCCCCCCCCOCC(O)CN(CCOP(=O)(O)OCCNCc1ccccc1)C(=O)CCCCCCCCCCCCCCC (stereo not shown) [Compound Ie8]	15	0.6	1.1	1.3
CCCCCCCCCCCCCCCCCCOCC(O)CN(CC(=O)O)CC(O)COCCCCCCCCCC (stereo not shown) [Compound II7]	10	0.5	0.8	1.1
CCCCCCCCCCCCCCCCOCC(O)CN(C(=O)CCCCCCCCCCCCCCC)C(CCC(=O)O)C(=O)O (stereo not shown) [Compound Ic11]	13	0.8	1.0	1.3
